Here are results for 22 molecules from PubChem BioAssay (NCI).

What all share (experiment): NCI tumour cell line growth inhibition, 48 h
The subject of assay [1] is KM20L2 colon.
In assay [2] the test system is SNB-78 CNS.
Assay [3] relates to MDA-N.
Assay [4] has as its system DMS 114 small cell lung.
Assay [5] has as its system XF 498 CNS.
Assay [6] has as its system DMS 273 small cell lung.
For assay [7], the system named is RXF-631 renal.
Assay [8] relates to M19-MEL melanoma.
The test system of assay [9] is HOP-18 NSCLC.
Assay [10] deals with P388/ADR leukemia.
Assay [11] deals with SN12K1 renal.

“And” between values parts separate entries of the source, which are not always exact repeats. Identical values can stand only once.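 Following 48 hours of exposure in 96-well plates, responses at five concentrations were used to interpolate endpoints linearly. The concentration for 50% growth inhibition is given as GI50. TGI marks complete inhibition of growth.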 Where only a bound is given, the exact number is not on record here.

Turning to `Cc1c(Cl)ccc2c1NC(=O)C2(O)CC(=O)c1ccc(Cl)cc1Cl` (stereo unspecified), the TGI in assay [1], in [2], in assay [3], in [4], in assay [5] and in assay [6] was above 50 µM throughout. Further, the TGI in [7] and in assay [8] was above 50 µM in each case.
As to `CN(C)c1c(Cl)c(=O)oc2c1ccc1nc(-c3ccccc3)sc12`, the TGI in assay [3] is above 100 µM.
For the molecule `O=C(Cc1ccccc1)Oc1ccc2c(-c3ccccc3)c(C(=O)Nc3ccc(Cl)cc3)c(=O)oc2c1`, the TGI in assay [1], in assay [2], in [4], in assay [5], in assay [6] and in [8] was above 100 µM in each case.
`O=S(=O)(c1cccc(C(F)(F)F)c1)N1c2ccccc2-n2cccc2C1c1cccnc1` (stereo unspecified) gave a TGI in assay [3] above 100 µM.
As to `CC(NC(=O)c1ccccc1)C(=O)N(Cc1ccccc1)Cc1ccccc1` (stereo unspecified), the TGI in assay [1] turned out to be 90.4 µM; in assay [2] it was 96.6 µM; in [4], 53.8 µM; in assay [6] it was 47.1 µM; in [8], 67.7 µM.
On to `O=C1CCC2(c3ccc(F)cc3)Nc3ccccc3N12` (stereo unspecified), for which the TGI in [1], in assay [2], in assay [4], in assay [5], in [7] and in [8] was above 100 µM throughout.
For the molecule `O=CC1=CCCC2(C1)OCCO2`, the TGI in assay [2], in assay [4], in [5], in [6], in [7] and in [8] was above 100 µM in each case.
`CC(=O)O[C@]1(C(C)=O)CC[C@H]2[C@@H]3C[C@H](C)C4=CC(=O)C=C[C@]4(C)[C@@]3(F)[C@@H](O)C[C@@]21C`: the TGI in [1], in assay [2], in assay [4], in assay [5], in [6] and in [8] was above 100 µM in each case.
Molecule `COc1cc(OC)c(-c2cc(=O)c3c(OC)c(OC)c(OC)c(OC)c3o2)cc1OC` had a TGI in assay [3] above 100 µM.
In the case of `COC(=O)N1[C@H]2Cc3c(OC)c(C)c(OC)c(OC)c3[C@@H]1/C(=C\c1cc(OC)c(OC)c(C)c1OC)N(Cc1ccccc1)C2=O`, the TGI is above 100 µM in assay [1]; 35.3 µM in assay [4]; above 100 µM in [9]; above 100 µM in assay [6]; 60 µM in assay [8].
With `COc1ccccc1-c1cc2c3c(nc4ccccc42)C(=O)c2cccnc2-c3n1`, in [3], the GI50 was 14.9 µM and the TGI is 28.5 µM.
As to `O=[N+]([O-])c1ccccc1S(=O)c1ccccc1` (stereo unspecified), the TGI in assay [2] is above 100 µM; in assay [4] it was 51.8 µM; in assay [5], above 100 µM; in [6] it was above 100 µM; in [8], above 100 µM.
For `[Cu+2].[Cu+2].[O-]c1ccccc1C=Nc1ccccc1[O-].[O-]c1ccccc1C=Nc1ccccc1[O-]`, the GI50 in assay [1] is 8.16 µM; in assay [2], 13.5 µM; in [4], 1.96 µM; in [5] it was 2.67 µM; in [9], 2.99 µM; in assay [6], 2.54 µM. Also, the GI50 in [8] was 1.86 µM. In addition, the TGI in assay [1] was 28 µM; in [2], 36.4 µM; in assay [4], 5.13 µM; in assay [5], 7.16 µM; in [9], 16.6 µM; in [6] it was 13.6 µM. In assay [8], this molecule returned a TGI of 3.69 µM.
For `O=C(O)CSc1n[nH]c(/C=C/c2ccccc2)n1`, the TGI in [1], in assay [2], in [4], in assay [5], in assay [9] and in assay [6] was above 100 µM throughout. Moreover, the TGI in [8] is above 100 µM.
In turn, `Cc1oc2ccccc2c(=O)c1Cn1nnc2ccccc21` showed a TGI in assay [3] above 100 µM.
Turning to `COc1ccc(CNc2cc(OC)cc(OC)c2)cc1`, the GI50 in assay [1] is > 100 µM and 49 µM; in assay [9], above 100 µM; in [6] it was > 100 µM and 42.3 µM. For the same molecule, the TGI in assay [1] is above 100 µM; in assay [2] it was 87.7 µM and 86.6 µM; in assay [4], above 100 µM; in [5], above 100 µM; in assay [9] it was above 100 µM; in assay [6] it was above 100 µM. The same molecule returned a TGI in assay [8] above 100 µM.
Take `COC1/C=C/O[C@@]2(C)Oc3c(C)c(O)c4c(O)c(cc(O)c4c3C2=O)NC(=O)/C(C)=C\C=C\[C@H](C)C(O)[C@@H](C)[C@@H](O)[C@@H](C)[C@H](OC(C)=O)[C@@H]1C` (stereo partly specified): the TGI in assay [1] is 30.5 µM; in [2], 95 µM; in assay [3] it was 39.9 µM and 27.8 µM; in assay [4], 20.6 µM; in [10], 59 µM; in assay [11] it was 33.5 µM. The TGI came out at 29.3 µM in [5], 38.8 µM in [9], 32.7 µM in assay [6] and 26.1 µM in [8]. In addition, the GI50 in assay [3] is 19.2 µM.
Take `Nc1nc2ncn(CCO)c2c(=O)[nH]1`: the TGI in assay [1], in [2], in assay [5], in [9], in assay [6] and in assay [8] was above 100 µM in each case.
For `CCCCN(CC)C(=O)C(=O)C1C(=O)Nc2ccccc2S1=O` (stereo unspecified), the TGI in [1], in assay [2], in [4], in assay [9], in assay [6] and in [8] was above 100 µM throughout.
For `C=C1C(=O)O[C@@H]2C[C@]3(C)[C@@H](C[C@H]12)[C@](C)(O)CC[C@@H]3O`, the TGI in [1], in [2], in assay [4], in assay [5], in assay [6] and in [7] was above 100 µM throughout. The molecule also displayed a TGI in assay [8] above 100 µM.
The molecule `CC1OCC2OC(C)OC(C3C4=C(CC(C)(C)CC4=O)OC4=C3C(=O)CC(C)(C)C4)C2O1` (stereo unspecified) showed a TGI in assay [3] above 100 µM.
As to `CN(C)CCC1(C2=CCCC2)CC/C(=C\c2ccc3c(c2)OCO3)C1=O` (stereo unspecified), the TGI was 28.6 µM in assay [1]; 35 µM in assay [2]; 32.7 µM in assay [4]; 26.4 µM in [9]; 38.7 µM in assay [7]; 32.6 µM in assay [8].
